From patent US20110060267A1 (priority 2008, published 2011)

How the values were obtained:
[1] = buffer; cited from earlier work
cornea = settings: riboflavin drops, UVA 30 minutes, ablated cornea; cited from earlier work
keratoconus [2] = settings: 0.1% riboflavin drops, UVA 3 mW/cm 30 minutes, deepithelialized cornea; cited from earlier work
keratoconus [3] = test: Treatment of keratoconus with photoinitiator and UV irradiation; type: in vivo; settings: 0.35M sodium persulfate drops; one 10-second UV burst 1000 mW
Protocol: A subject is diagnosed with keratoconus in both eyes. They are not able to wear contact lenses. […] Corneal hysteresis measurements are made using the Reichert Ocular Response Analyzer. Corneal hysteresis (CH) is at least 3 numbers less than the normal population. Corneal topography is also conducted to identify the location of keratoconus. The subject is chosen to receive treatment using short wavelength ultraviolet irradiation following administration of a low concentration photoinitiator. Drops of 0.35M sodium persulfate in 0.02M sodium phosphate buffer at a pH of 7.6-8.0 are administered to the cornea in an applicator designed to limit exposure to the location of keratoconus on the corneal surface. The cornea is then exposed to one 10-second burst of ultraviolet irradiation at an intensity of 1000 mW.

[4] = tested on: cornea following orthokeratology lens wear; test: Corneal stabilization following orthokeratology lens wear; type: in vivo; settings: treated eye compared to untreated control eye; 0.35M sodium persulfate; one 10-second UV burst 1000 mW
From the text: Subjects are fitted with lenses for orthokeratology. The subjects have one (1) eye treated by exposure to ultraviolet irradiation following pretreatment with a photoinitiator. The contralateral eye is an untreated control. Selection of the eye to be treated is random. Examinations at the initial visit and at each follow-up include unaided visual acuity, slit-lamp examination, refractive error, corneal topography, and corneal hysteresis using the Reichert Ocular Response Analyzer. CH values correlate with reduced mechanical stability. The subject is chosen to receive treatment using short wavelength ultraviolet irradiation following administration of a low concentration photoinitiator. Drops of 0.35M sodium persulfate in 0.02M sodium phosphate buffer at a pH of 7.6-8.0 are administered to the cornea in an applicator designed to limit exposure to the corneal surface. The cornea is then exposed to one 10-second burst of ultraviolet irradiation at an intensity of 1000 mW.

post-LASIK ectasia = test: Treatment for post-LASIK ectasia with photoinitiator and UV irradiation; type: in vivo; settings: 0.35M sodium persulfate drops; one 10-second UV burst 1000 mW
Protocol: A subject is diagnosed with ectasia following a LASIK procedure. […] Mechanical stability is measured using the Reichert Ocular Response Analyzer. CH values correlate with reduced mechanical stability. Pachymetry of the cornea measures a corneal stromal thickness of 300 microns or less in areas of the cornea, indicative of post-LASIK ectasia. The subject is chosen to receive treatment using short wavelength ultraviolet irradiation following administration of a low concentration photoinitiator. Drops of 0.35M sodium persulfate in 0.02M sodium phosphate buffer at a pH of 7.6-8.0 are administered to the cornea in an applicator designed to limit exposure to the location of keratoconus on the corneal surface. The cornea is then exposed to one 10-second burst of ultraviolet irradiation at an intensity of 1000 mW.

porcine cornea = test: Stress-strain analysis of corneal buttons after photoinitiator and UV exposure

For `CC(C#N)(CCC(=O)O)N=NC(C)(C#N)CCC(=O)O` (stereo not drawn) [4,4′-Azobis(4-cyanovaleric acid)], the “10th Half-life ° C. (Solvent)” value [1] is given as 69 (water) ° C.
For `Cc1cc2nc3c(=O)[nH]c(=O)nc-3n(C[C@H](O)[C@H](O)[C@H](O)CO)c2cc1C` [riboflavin], the corneal biomechanical stiffness (cornea) is given as “significant increase” and the “clinical treatment of keratoconus” value (keratoconus [2]) is given as “successful”.
In the case of `O=S(=O)([O-])OOS(=O)(=O)[O-].[Na+].[Na+]` [sodium persulfate], the “corneal hysteresis (CH)” value (keratoconus [3]) is reported as “increase”, the vision (keratoconus [3]) is reported as “significant improvement” and the “regression of visual acuity” value [4] is reported as “minimal to no regression”. For the same molecule, the “corneal hysteresis (CH)” value (post-LASIK ectasia) was “two-fold increase”, the vision (post-LASIK ectasia) was “significant improvement” and the “low modulus following exposure to ultraviolet irradiation” value (porcine cornea; 0.35M sodium persulfate 1 min, 10-second bursts UV 1000 mW, 310-400 nm, acetic anhydride softened cornea) was “increased”. The low modulus (porcine cornea; four 10-second UV exposures) was “nearly equal to untreated control cornea”, the “strengthening (low modulus)” value (porcine cornea; single 10-second UV exposure, FIG. 1) was “maximum” and the low modulus (porcine cornea; subsequent UV exposures, FIG. 1) was “reduced the increase in low modulus”.
